Results taken from publication PMC7156724, “Potent BRD4 inhibitor suppresses cancer cell-macrophage interaction” (Nature Communications, 2020).
Values joined by “and” are separate entries in the source; they are usually repeats but may differ in a detail not shown here. Identical values can stand only once.

Tests used:
[1] = MTS assay of non-cancerous cells; assay type: cell-based, human; conditions: human
Method: Supplementary Figure 4. […] (a-c) MTS
assays of HaCAT cells (immortalized human keratinocytes) treated with the indicated concentration of
NHWD-870 for 24h (a), 48h (b) or 72h (c). Data are presented as mean ± SEM of 5 independent experiments.
p values were calculated from two-tailed, unpaired t tests. Source data are provided as a Source Data file.
37℃, 5% CO2. […]

HIF1 reporter activity = assay: HIF1 luciferase reporter assay; assay type: cell-based, human; set-up: key to HIF1 luciferase reporter activity, relative (Fig.7e): firefly/Renilla luciferase activity ratio, relative to control
Method: Fig. 7 NHWD-870 inhibited CSF1 expression through suppressing BRD4 and HIF1α in tumor cells. a, b Representative western blot analysis of control (Ctrl) and BRD4 knockout (KO) A375 and A2780 cells exposed to 20% or 1% O2 for 24 hours. Selected from three independent experiments. c, d Representative western blot analysis of A375 and A2780 cells treated with DMSO or 25 nM NHWD-870 and exposed to 20% or 1% O2 for 24 h. Selected from three independent experiments. e Relative HIF1 luciferase reporter activity in control (Ctrl), BRD4 knockout (KO), or NHWD-870 treated A375 and A2780 cells exposed to 20% or 1% O2 for 24 h. Data are presented as mean ± SEM from three independent experiments. f RT-qPCR analyses of CSF1 in control (Ctrl), BRD4 knockout (KO), or NHWD-870 treated A375 and A2780 cells exposed to 20% or 1% O2 for 24 hours. Data are presented as mean ± SEM from three independent experiments. g RT-qPCR analyses of HIF1A in A375 or A2780 cells treated with 15 nM NHWD-870 or DMSO control for 24 h. Data are presented as mean ± SEM from three independent experiments. h Genome browser view of BRD4 ChIP-seq peaks on the HIF1A promoter. Shown are BRD4 ChIP and input control of A375 cells (top panel) and BRD4 ChIP of MDA-MB231 cells treated with DMSO or JQ-1 (bottom panel). i BRD4 ChIP-qPCR analyses of the HIF1A promoter in A2780 cells treated with DMSO or NHWD-870 for 72 h. Data are presented as mean ± SEM from three independent experiments. j RT-qPCR analyses of CSF1 in A375 and A2780 cells were transiently transduced with HIF1α, then exposed to 1% O2 for 24 h. Ctrl, Control. Data are presented as mean ± SEM from three independent experiments. k A model showing the effects of NHWD-870 on cancer cell-TAM interaction. NHWD-870 inhibits the proliferation and survival of TAMs partly by inhibiting BRD4 activity, HIF1α expression, and CSF1 secretion by tumor cells, and downregulating CSF1R mediated ERK and PI3K/AKT signaling in TAMs. p values were calculated using two-tailed, unpaired t tests in this figure. *p < 0.05; **p < 0.01; ***p < 0.001. Source data are provided as a Source Data file.
Supplementary Figure 15. […]
Data in (a) and (c-e) are presented as mean ± SEM from 3 independent experiments. p values were calculated using two-tailed, unpaired t tests. **, p<0.01; ***, p<0.001. Source data are provided as a Source […]
All patients had […]
undergone complete cytoreductive surgery.
14. Immunohistochemical staining. Paraffin-embedded implantation samples isolated from peritoneal metastasis of EOC patients (128 cases) were sectioned at a thickness of 4μm. To stain CD68, CSF1 and p-BRD4, the slides were first deparaffinized in xylene and rehydrated with gradient concentrations of alcohol under standard procedures. After rehydration, the slides were immersed in 0.01 mol/L citrate buffer (pH 6.0) and heated (95°C) for 15 min for antigen retrieval.
Then, the samples were incubated with 3% hydrogen peroxide (H2O2) for 10 minutes followed by 10% normal goat serum blocking for 10 minutes. Subsequently, the sections were incubated with rabbit polyclonal anti-human CD68 antibody (dilution 1:100) (sc-20060, Santa Cruz Biotechnology) and anti-human p-BRD4

[2] = test system: monocytes in peripheral blood; assay: Complete blood cell counting of monocytes in B16F10 tumor bearing mice; assay type: in vivo, mouse; conditions: B16F10 melanoma tumor bearing mice, 11 days
Method: Reviewer Fig 3. […] B16F10 melanoma […]
tumor bearing mice (n=5) treated with the indicated compounds for 11 days. Monocytes in blood of DMSO and NHWD-870-treated mice were analyzed by complete blood cell counting (CBC). […]
tumor cells blocks mCSF expression and blocks proliferation of macrophages ex vivo. It is not possible from these studies to conclude if NHWD-870 mediated inhibition of mCSF expression is responsible for […]
In part, this is because the culture conditions for this unusual assay have not been described in the methods or text sections. What are the components of the culture medium? Does it include serum, mCSF and other growth factors? A more direct method of testing the effect of tumor cell expressed mCSF on TAMs ex vivo is to incubate TAMs in defined tumor cell conditioned media from untreated and treated tumor cells (the media placed on the macrophages should not include the drug, however). However, there is one other key weakness to these studies that […]
It is thus not clear if absence of mCSF or products from dying cells suppress macrophage growth as colonies ex vivo. […]
experiments, which has been added and addressed in response to comment #4. We agree that the experiments can be done with conditioned media. […]
Shown are schematics of the experiments (m) and quantification of TAMs (n, o). […]

Question: For `Cc1nnn(C)c1-c1cnc2c3c4cnn(C)c4ccc3n([C@H](c3ccccc3)C3CCOCC3)c2c1` [NHWD-870], which viability at 24 h, 0.008 µM ([1]; HaCAT cells (immortalized human keratinocytes), 24h, 8 nM, read-out: Cell viability (Sup Fig.4a)) is on record?
Answer: 92.2%

Question: What about the viability at 24 h, 0.016 µM ([1]; HaCAT cells (immortalized human keratinocytes), 24h, 16 nM, read-out: Cell viability (Sup Fig.4a)) of the same compound?
Answer: 110%

Question: And the viability at 24 h, 0.064 µM ([1]; HaCAT cells (immortalized human keratinocytes), 24h, 64 nM, read-out: Cell viability (Sup Fig.4a))?
Answer: 103%

Question: What about the viability at 24 h, 0.25 µM ([1]; HaCAT cells (immortalized human keratinocytes), 24h, 250 nM, read-out: Cell viability (Sup Fig.4a)) of the same compound?
Answer: 104%

Question: What about the viability at 24 h, 0.5 µM ([1]; HaCAT cells (immortalized human keratinocytes), 24h, 500 nM, read-out: Cell viability (Sup Fig.4a)) of the same compound?
Answer: 100%

Question: What about the viability at 48 h, 0.032 µM ([1]; HaCAT cells (immortalized human keratinocytes), 48h, 32 nM, read-out: Cell viability (Sup Fig.4b)) of the same compound?
Answer: 91%

Question: And the viability at 48 h, 0.064 µM ([1]; HaCAT cells (immortalized human keratinocytes), 48h, 64 nM, read-out: Cell viability (Sup Fig.4b))?
Answer: 83.9%

Question: And the viability at 48 h, 0.25 µM ([1]; HaCAT cells (immortalized human keratinocytes), 48h, 250 nM, read-out: Cell viability (Sup Fig.4b))?
Answer: 88.5%

Question: And the viability at 48 h, 0.5 µM ([1]; HaCAT cells (immortalized human keratinocytes), 48h, 500 nM, read-out: Cell viability (Sup Fig.4b))?
Answer: 86.7%

Question: What about the viability at 48 h, 1 µM ([1]; HaCAT cells (immortalized human keratinocytes), 48h, 1000 nM, read-out: Cell viability (Sup Fig.4b)) of the same compound?
Answer: 87.1%

Question: And the viability at 72 h, 0.008 µM ([1]; HaCAT cells (immortalized human keratinocytes), 72h, 8 nM, read-out: Cell viability (Sup Fig.4b, 72h))?
Answer: 99.5%

Question: And the viability at 72 h, 0.016 µM ([1]; HaCAT cells (immortalized human keratinocytes), 72h, 16 nM, read-out: Cell viability (Sup Fig.4b, 72h))?
Answer: 90.2%

Question: What about the viability at 72 h, 0.032 µM ([1]; HaCAT cells (immortalized human keratinocytes), 72h, 32 nM, read-out: Cell viability (Sup Fig.4b, 72h)) of the same compound?
Answer: 86.9%

Question: What about the viability at 72 h, 0.064 µM ([1]; HaCAT cells (immortalized human keratinocytes), 72h, 64 nM, read-out: Cell viability (Sup Fig.4b, 72h)) of the same compound?
Answer: 89.6%

Question: What about the viability at 72 h, 0.25 µM ([1]; HaCAT cells (immortalized human keratinocytes), 72h, 250 nM, read-out: Cell viability (Sup Fig.4b, 72h)) of the same compound?
Answer: 78.9%

Question: What about the viability at 72 h, 0.5 µM ([1]; HaCAT cells (immortalized human keratinocytes), 72h, 500 nM, read-out: Cell viability (Sup Fig.4b, 72h)) of the same compound?
Answer: 87.1%

Question: And the viability at 72 h, 1 µM ([1]; HaCAT cells (immortalized human keratinocytes), 72h, 1000 nM, read-out: Cell viability (Sup Fig.4b, 72h))?
Answer: 78.4%

Question: And the viability at 24 h, 1 µM ([1]; HaCAT cells (immortalized keratinocytes), 24h, 1000 nM, read-out: Cell viability (Sup Fig.4a))?
Answer: 108%

Question: What about the viability at 48 h, 0.008 µM ([1]; HaCAT cells (immortalized keratinocytes), 48h, 8 nM, read-out: Cell viability (Sup Fig.4b)) of the same compound?
Answer: 86.6%

Question: What about the viability at 48 h, 0.016 µM ([1]; HaCAT cells (immortalized keratinocytes), 48h, 16 nM, read-out: Cell viability (Sup Fig.4b)) of the same compound?
Answer: 89.9%

Question: And the “HIF1 luciferase reporter activity, relative (Fig.7e)” value (HIF1 reporter activity; A375, 1% O2)?
Answer: 3.6595 and 5.4118 and 3.2149

Question: And the “HIF1 luciferase reporter activity, relative (Fig.7e)” value (HIF1 reporter activity; A375, 20% O2)?
Answer: 0.7214 and 0.5505 and 0.6045

Question: What about the “HIF1 luciferase reporter activity, relative (Fig.7e)” value (HIF1 reporter activity; A2780, 1% O2) of the same compound?
Answer: 1.7045 and 2.3901 and 2.1842

Question: And the “HIF1 luciferase reporter activity, relative (Fig.7e)” value (HIF1 reporter activity; A2780, 20% O2)?
Answer: 0.5644 and 0.5674 and 0.4042

Question: And the HIF1 reporter activity (HIF1 reporter activity; A2780 and A375 cells, 20% or 1% O2, 24 h)?
Answer: significantly decreased HIF1 reporter activity

Question: What about the “effects on monocytes in peripheral blood” value [2] of the same compound?
Answer: relatively mild effects
